{"source": "patent US20130287705A1", "about": "“METHOD OF TREATING MUCOSAL INFLAMMATION” (MCMASTER UNIVERSITY, priority 2010, published 2013)", "key": {"[1]": {"system": "DSS and DNBS colitis", "conditions": "PCPA treated mice after induction of colitis; cited from earlier work"}, "[2]": {"system": "dendritic cells", "conditions": "dendritic cells from TPH1-/- mice in DSS-colitis, stimulation with 5-HT; cited from earlier work"}, "[3]": {"system": "splenic dendritic cells", "assay": "Ex vivo culture of CD11c positive splenic DCs from bone-marrow reconstituted mice post-DSS", "format": "cell-based", "conditions": "LPS and serotonin vs LPS only", "protocol": "Mice were sacrificed by cervical dislocation and spleens were excised and placed in Spleen Dissociation Medium (STEMCELL Technologies) and incubated for 30 min at room temperature. They were then strained through a 70-μm nylon mesh filter (BD Falcon) and washed with PBS supplemented with 2% fetal bovine serum (FBS) and 1 mmol/L EDTA. Splenic DCs were isolated using a CD11c^+ isolation kit (EasySep®, STEMCELL Technologies) according to the manufacturer's guidelines.\nDCs isolated using CD11c positive selection were incubated at 1×10^6 cells per mL for 24 hours at 37° C. with or without 100 ng/mL LPS (Sigma-Aldrich) in RPMI 1640 supplemented with 10% FBS, 100 U/mL penicillin, 100 μg/mL streptomycin, and 50 μM 2-mercaptoethanol (Invitrogen Life Technologies). Supernatents were collected after 24 hours and analyzed for cytokine levels using ELISA kits for murine IL-12p40, IL-1β, and IL-6 (Quantikine Murine; R&D Systems, Minneapolis, Minn., USA).\n6-8 week old male recipient C57BL/6 mice (Taconic) were irradiated with two doses of 5.5 Gy 48 hours apart administered via a ^137Cs γ-irradiation source (Gamma Cell 40; Nordian, Kanata, ON, Canada). Bone marrow cells (no fewer than 5×10^4) were harvested from femurs and tibiae of donor mice (5-HT7^+/+) and 5-HT7^−/− and given via tail vein injection to recipient mice within two hours of the second irradiation exposure. […]"}, "[4]": {"system": "DSS-induced colitis", "assay": "DSS-induced colitis in mice treated with 5-HT7 antagonist", "format": "in vivo, C57BL/6 mice"}}, "data": [{"smiles": "NC(Cc1ccc(Cl)cc1)C(=O)O", "note": "(racemic) [PCPA, para-chloro-D, L-phenylalanine]", "values": [{"measurement": "onset of colitis", "setting": "[1]", "result": "Delayed onset"}, {"measurement": "pro-inflammatory cytokine production", "setting": "[1]", "result": "down-regulation"}, {"measurement": "severity of colitis", "setting": "[1]", "result": "decreased severity"}]}, {"smiles": "NCCc1c[nH]c2ccc(O)cc12", "note": "[serotonin, 5-hydroxytryptamine]", "values": [{"measurement": "IL-12 production", "setting": "[2]", "result": "restored"}, {"measurement": "IL-1β production", "setting": "[3]; DCs from mice reconstituted with wild-type BMC, FIG. 9", "result": "significantly up-regulated"}, {"measurement": "increase in IL-1β production", "setting": "[3]; DCs from spleens of transgenic mice (5-HT7-/- BMC)", "result": "not seen"}]}, {"smiles": "CC1CCN(CC[C@H]2CCCN2S(=O)(=O)c2cccc(O)c2)CC1.Cl", "note": "[SB-269970, (2R)-1-[(3-Hydroxyphenyl)sulfonyl]-2-[2-(4-methyl-1-piperidinyl)ethyl]pyrrolidinehydrochloride]", "values": [{"measurement": "colitis severity (macroscopic damage)", "setting": "[4]; 40 mg/kg i.p., day 5 post-DSS induction, compared to controls", "result": "significantly lower"}, {"measurement": "histological scores", "setting": "[4]; 40 mg/kg i.p., day 5 post-DSS induction, compared to controls, FIG. 1C", "result": "significantly less severe"}, {"measurement": "myeloperoxidase (MPO) activity in colonic tissue", "setting": "[4]; 40 mg/kg i.p., post-DSS, FIG. 2A", "result": "significantly lower"}, {"measurement": "production of IL-1β in colonic tissue", "setting": "[4]; 40 mg/kg i.p., post-DSS, FIG. 2B", "result": "lower production"}, {"measurement": "production of TNF-α in colonic tissue", "setting": "[4]; 40 mg/kg i.p., post-DSS, FIG. 2C", "result": "lower production"}, {"measurement": "production of IL-6 in colonic tissue", "setting": "[4]; 40 mg/kg i.p., post-DSS, FIG. 2D", "result": "lower production"}, {"measurement": "Clinical disease activity scores (fecal blood and consistency, and weight loss)", "setting": "[4]; 40 mg/kg intraperitoneally, days 4 and 5 post-DSS administration, vs vehicle (saline), FIG. 1A", "result": "significantly lower"}]}]}
